Data set [1] in a line: Metabolic stability in rat liver microsomes. It is filed as in vitro ADME. Set-up: half-life / CLint scaled: dose or concentration left out as unconfirmed. As to conditions: for CLint scaled: calculated, read-out: Intrinsic liver clearance rate CLint Rat; for half-life: read-out: Microsomal half-life t1/2 Rat. The method, then: (ii) Metabolic stability in liver microsomes. The metabolic stability assay was performed in duplicate using 96-deepwell plates. Each compound (0.4 mM) was incubated individually in mouse, rat, and pooled human liver microsomes (0.4 mg/ml) at 37°C in the presence and absence of the cofactor NADPH (1 mM). An aliquot was taken at 0, 5, 10, 30, and 60 min, and the reaction was quenched by adding 300 μl of ice-cold acetonitrile containing the internal standard carbamazepine (0.0236 μg/ml) ([88]). The test compounds in the supernatant were analyzed by means of LC-MS/MS as described in “Sample analysis” below. The normalized data for each sample were used to calculate the in vitro half-life, intrinsic clearance rate, and hepatic extraction ratio from the results of this assay using the following equations ([88]).Equation 1. Normalized area. (1) Normalized area=(Peak area of sample at time point/Peak area of internal standard) Equation 2. Percent parent remaining. (2) % Parent=Normalized peak area of sample at time point/Normalized peak area of sample at t=0×100 Equation 3. Calculated t1/2. (3) t1/2=−0.693/λ where λ is the slope of the ln (% parent remaining) versus time curve of the compound.Equation 4. CLint. (4) CLint=[0.693/t1/2(min)]×[Volume of incubation (μl)/Microsomal protein (μg)] Equation 5. Hepatic extraction ratio. (5) EH=fu×CLint/QH + fu×CLint
(§1) Sample extraction. […] The organic layer was then transferred and evaporated under a gentle stream of nitrogen at room temperature for 30 min. The dried samples were reconstituted in mobile phase, and a 5 μl sample was injected for LC-MS/MS analysis. The only exception was the arylurea 10, for which no liquid-liquid extraction was conducted; instead, the 200 μl acetonitrile solution was evaporated under a gentle stream of nitrogen at room temperature. The dried sample was reconstituted in the mobile phase, and a 5 μl sample was injected for LC-MS/MS analysis. The plasma samples for each compound from the in vivo studies were extracted by mixing 350 μl ethyl acetate with 15 μl of plasma sample and 35 μl of universal buffer containing internal standard at pH 8. The samples were vortexed for 1 min and centrifuged for 5 min, and the organic layer was then transferred and evaporated under a gentle stream of nitrogen at room temperature for 30 min. The dried samples were each reconstituted in the mobile phase, and a 5 μl sample was injected for LC-MS/MS analysis.
LC-MS/MS analysis. For all the artemisinins except the arylurea 10, gradient chromatography was performed on a Phenomenex (Torrance, CA, USA) Luna PFP(2) analytical column (100 Å, 5 μm, 2 by 50 mm) and an AB Sciex API 5500 mass spectrometer which was operated at unit resolution in the multiple reaction monitoring (MRM) mode. The HPLC method used was a gradient method with 5 mM ammonium acetate and 0.1% acetic acid in water as the aqueous phase and a mixture of acetonitrile and methanol (1:1 vol/vol) containing 5% of the aqueous phase as the organic phase ([89]). The arylurea 10 was analyzed using a Phenomenex Gemini NX-C18 (5 μm, 2.1 mm by 50 mm) column with an AB Sciex 3200 QTRAP mass spectrometer operated at unit resolution in the MRM mode. The HPLC method used was a gradient method with 5 mM ammonium acetate and 0.1% acetic acid in water as the aqueous phase and a mixture of acetonitrile and methanol (1:1 vol/vol). The transitions of the molecular ions were monitored, as listed in Table S8 in the supporting information. The calibration range was between 0.002 μg/ml and 6.250 μg/ml. Data acquisition and evaluation were performed using Analyst 1.6.2 software (Applied Biosystems, Foster City, CA, USA). The formation of the putative metabolite DHA from the amino-artemisinins and the metabolite M1 of artemisone were evaluated in these mice PK studies; the MRM transitions of DHA and M1 (Table S8) were thus included in the LC-MS/MS assays.

Data set [2] is described as follows: Pharmacokinetics in mice, intravenous administration. As to conditions: for AUC: 0 h to last, parent; for V: volume of distribution during elimination phase; for half-life / CLint scaled / clearance: male; for half-life: C57/BL6, iv, mouse plasma; for CLint scaled / clearance: C57/BL6, mouse, plasma, iv; for clearance: read-out: CLtot; for DHA detected as a metabolite: mouse PK studies, i.v. and p.o., LC-MS/MS. It is filed as in vivo, male C57/BL6 mice. The method, then: (i) Animals. Healthy male C57/BL6 mice each weighing approximately 25 g were used. The mice maintained at the University of Cape Town animal facility were housed in 27 by 21 by 18 cm cages, under controlled environmental conditions at 22 ± 2°C and a 12-h light/dark cycle. Humidity was monitored and ranged between 55 and 70%. Food and water were available ad libitum. Mice were acclimatized to their environment for 7 days before experiments were initiated.
(iii) Intravenous drug administration. For the intravenous formulations, each of artemether, the amino-artemisinins 5 to 10, and 11-aza-artemisinin 11 (2.5 mg) was dissolved in 1 ml DMSO/PEG/PPG (1:3:6, vol/vol). DMSO was added first, followed by PEG and then PPG. The resulting solutions in the mixture of DMSO, PEG, and PPG (1:3:6, vol/vol) were administered intravenously at a dose of 10 mg/kg (n = 3) via injection into the dorsal penile vein. Mice were anesthetized with an intraperitoneal injection of a saline ketamine/xylazine solution. This consisted of 1 ml ketamine (100 mg/ml), 0.5 ml xylazine (20 mg/ml), and 8.5 ml PBS solution to make a total volume of 10 ml. Dosage of anesthetic preparation for mice was […]; this amounts to a dose of 80 mg/kg ketamine and 10 mg/kg xylazine. The total volume of administration was dose adjusted to 10 mg/kg with an approximate volume of 80 μl, according to the weight of each animal on the morning of dosing. Blood samples for the amino-artemisinins 5 to 8 and 10 were collected via tail-bleeding predose and at 0.08, 0.25, 0.5, 1, 2, and 4 h, and blood samples for the phenylurea 9 and 11-aza-artemisinin 11 were collected at 0.08, 0.5, 1, 2, 4, 8, and 24 h postdose. Samples were all placed in 0.5 ml lithium heparin microvials to prevent blood coagulation. The samples were immediately centrifuged at 5,590 × g for 5 min and the plasma was transferred to new microvials. The plasma samples were stored at −80°C.
as §1
LC-MS/MS analysis. For all the artemisinins except the arylurea 10, gradient chromatography was performed on a Phenomenex (Torrance, CA, USA) Luna PFP(2) analytical column (100 Å, 5 μm, 2 by 50 mm) and an AB Sciex API 5500 mass spectrometer which was operated at unit resolution in the multiple reaction monitoring (MRM) mode. The HPLC method used was a gradient method with 5 mM ammonium acetate and 0.1% acetic acid in water as the aqueous phase and a mixture of acetonitrile and methanol (1:1 vol/vol) containing 5% of the aqueous phase as the organic phase ([89]). The arylurea 10 was analyzed using a Phenomenex Gemini NX-C18 (5 μm, 2.1 mm by 50 mm) column with an AB Sciex 3200 QTRAP mass spectrometer operated at unit resolution in the MRM mode. The HPLC method used was a gradient method with 5 mM ammonium acetate and 0.1% acetic acid in water as the aqueous phase and a mixture of acetonitrile and methanol (1:1 vol/vol).

[3] abbreviates: 10 mg/kg, i.v. 10 mg/kg, total plasma clearance.
The mark [4] stands for this setting: metabolite formed from i.v. artemiside 5, 10 mg/kg.

We go through eight molecules from paper PMC8284440, “Toward New Transmission-Blocking Combination Therapies: Pharmacokinetics of 10-Amino-Artemisinins and 11-Aza-Artemisinin and Comparison with Dihydroartemisinin and Artemether” (Antimicrobial Agents and Chemotherapy, 2021).

In the case of `C[C@H]1[C@@H](O)O[C@@H]2O[C@@]3(C)CC[C@H]4[C@H](C)CC[C@@H]1[C@@]24OO3` [DHA 2, dihydroartemisinin], in data set [1], the “Hepatic extraction ratio EH Rat” value stood at 0.4, the CLint scaled is 34.7 mL/min/kg and the half-life was determined as 1.5 h. Also, the AUC of metabolite in data set [2] (metabolite formed from i.v. artemether 3, 10 mg/kg) stood at 155 ± 17 min/µmol/L.
Regarding `C[C@H]1[C@H](N2CCS(=O)(=O)CC2)O[C@@H]2O[C@@]3(C)CC[C@H]4[C@H](C)CC[C@@H]1[C@@]24OO3` [Artemisone 6, artemisone], in data set [1], the “Hepatic extraction ratio EH Rat” value was 0.9, the CLint scaled is 342 mL/min/kg and the half-life was less than 0.167 h. Further, in data set [2] (i.v. 10 mg/kg), the AUC was determined as 577.5 ± 30 min/µmol/L, the V is 1.9 ± 0.1 L/kg and the half-life was 0.5 ± 0.03 h. Also, in data set [2] (10 mg/kg), the CLint scaled came out at 302 mL/min/kg. Moreover, the clearance in data set [2] (setting [3]) came out at 42.3 ± 2.1 mL/min/kg. For the same molecule, in data set [2] (setting [4]), the AUC of metabolite is 28.9 ± 1 min/µmol/L. Besides, the “DHA detected as a metabolite” value in data set [2] was “not detected”.
On to `CO[C@H]1O[C@@H]2O[C@@]3(C)CC[C@H]4[C@H](C)CC[C@@H]([C@H]1C)[C@@]24OO3` [Artemether 3, artemether], for which, in data set [1], the “Hepatic extraction ratio EH Rat” value was 0.9, the CLint scaled was 988 mL/min/kg and the half-life is less than 0.167 h. In data set [2] (i.v. 10 mg/kg), the AUC was determined as 304.4 ± 80 min/µmol/L, the V amounted to 14.1 ± 1.3 L/kg and the half-life was 1.4 ± 0.2 h. In data set [2] (10 mg/kg), this molecule gave a CLint scaled of 855 mL/min/kg. Besides, the clearance in data set [2] (setting [3]) is 120 ± 39 mL/min/kg.
For `C[C@H]1[C@H](N2CCSCC2)O[C@@H]2O[C@@]3(C)CC[C@H]4[C@H](C)CC[C@@H]1[C@@]24OO3` [Artemiside 5, artemiside], in data set [1], the “Hepatic extraction ratio EH Rat” value amounted to 1.0, the CLint scaled was 1390 mL/min/kg and the half-life was less than 0.167 h. In data set [2] (i.v. 10 mg/kg), the AUC came out at 184.9 ± 43 min/µmol/L, the V came to 24.3 ± 9.3 L/kg and the half-life is 1.8 ± 0.5 h. Moreover, the CLtot in data set [2] (i.v. 10 mg/kg, total plasma clearance, 10 mg/kg) worked out at 155.0 ± 46.4 mL/min/kg. The molecule also had a CLint scaled in data set [2] (10 mg/kg) of 674 mL/min/kg. The clearance in data set [2] (setting [3]) was determined as 130 mL/min/kg. The “DHA detected as a metabolite” value in data set [2] is listed as “not detected”.
In the case of `C[C@H]1[C@H](N2C=CS(=O)(=O)CC2)O[C@@H]2O[C@@]3(C)CC[C@H]4[C@H](C)CC[C@@H]1[C@@]24OO3` [M1 12], in data set [1], the “Hepatic extraction ratio EH Rat” value turned out to be 0.7, the CLint scaled was 108 mL/min/kg and the half-life was determined as 0.48 h. The AUC of metabolite in data set [2] (setting [4]) came out at 13.8 ± 9 min/µmol/L. Also, the AUC of metabolite in data set [2] (metabolite formed from i.v. artemisone, 10 mg/kg) stood at 60.6 ± 36 min/µmol/L.
`C[C@H]1[C@H](NS(N)(=O)=O)O[C@@H]2O[C@@]3(C)CC[C@H]4[C@H](C)CC[C@@H]1[C@@]24OO3` [Sulfamide 7]: in data set [1], the “Hepatic extraction ratio EH Rat” value turned out to be 0.4, the CLint scaled is 32.9 mL/min/kg and the half-life was 1.58 h. In data set [2] (i.v. 10 mg/kg), the AUC stood at 864.1 ± 213 min/µmol/L, the V was 1.63 ± 0.4 L/kg and the half-life was 0.6 ± 0.1 h. The CLint scaled in data set [2] (10 mg/kg) was found to be 189 mL/min/kg. Moreover, the clearance in data set [2] (setting [3]) came out at 32.2 ± 6.2 mL/min/kg. Further, in data set [2], the “DHA detected as a metabolite” value is “not detected”.
`C[C@@H]1CC[C@H]2[C@@H](C)C(=O)N[C@@H]3O[C@@]4(C)CC[C@@H]1[C@]32OO4` [11-Aza-artemisinin 11, 11-aza-artemisinin]: in data set [1], the “Hepatic extraction ratio EH Rat” value came out at 0.1, the CLint scaled was 9 mL/min/kg and the half-life was greater than 2.5 h. In addition, in data set [2] (i.v. 10 mg/kg), the AUC is 462.7 ± 117 min/µmol/L, the V was determined as 19.4 ± 7.5 L/kg and the half-life was 3.1 ± 0.8 h. The molecule further showed a CLint scaled in data set [2] (10 mg/kg) of 577 mL/min/kg. Further, the clearance in data set [2] (setting [3]) worked out at 75 ± 8.9 mL/min/kg. Moreover, the “DHA detected as a metabolite” value in data set [2] (listed as 11-Aza-artemisinin) is on record as “could not be detected”. In addition, the “DHA detected as a metabolite” value in data set [2] (listed as 11-aza-artemisinin) was “not detected”.
`C[C@H]1[C@H](N2CCN(C(=O)Nc3ccc(F)cc3)CC2)O[C@@H]2O[C@@]3(C)CC[C@H]4[C@H](C)CC[C@@H]1[C@@]24OO3` [Arylurea 10]: in data set [2] (i.v. 10 mg/kg), the AUC was determined as 315.9 ± 33 min/µmol/L, the V stood at 6.92 ± 2.9 L/kg and the half-life was 1.3 ± 0.3 h. Further, the CLint scaled in data set [2] (10 mg/kg) was determined as 2940 mL/min/kg. Further, the clearance in data set [2] (setting [3]) was found to be 58.9 ± 3.5 mL/min/kg.
